Test results published in patent publication US20060128718A1, “Tetrahydropyridazine derivatives having a pesticidal effect” (priority 2002, published 2006).
Like-named read-outs stand apart in the source and are kept apart here.

Legend:
[1] = logP determination by HPLC on reversed phase column (C 18), EEC directive 79/831; format: physicochemical; settings: reversed phase HPLC column (C 18)
Experimental: Determine the logP values given in the table as specified in EEC directive 79/831 ex V.A8 using HPLC (high performance liquid chromatography) in a reversed e column (C 18). Temperature: 43° C.
(a) eluents for determination in the acid range: 0.1% aqueous phosphoric acid, acetonitrile, linear gradient of 10% acetonitrile to 90% acetonitrile—corresponding measurement results are marked with an a) in Table 1.
(b) eluents for determination in the neutral range: 0.01-molar aqueous phosphate buffer solution, acetonitrile, linear gradient of 10% acetonitrile to 90% acetonitrile—corresponding measurement results are marked with a b) [sic] in Table 1.
Calibration is done using unbranched alkane-2-ones (with 3 to 16 carbon atoms), whose logP values are known (determination of the logP values using the retention times via linear interpolation between two sequential ketones).

[2] = system: larvae of the diamondback moth (Plutella xylostella); test: Plutella test (cabbage leaves dipped); format: in vivo
Excerpt: (§1) Plutella Test To prepare one of the appropriate active ingredient preparations, mix 1 part by weight of the active ingredient with the indicated amount of solvent and emulsifier and dilute the concentrate with emulsifier-containing water to the desired concentration. Treat cabbage leaves (Brassica oleracea) by dipping into the active ingredient preparation of the desired concentration and infesting with larvae of the diamondback moth (Plutella xylostella) while the leaves are still damp. After the desired time, determine the death rate in %. For these purposes 100% means that all the larvae on the leaves were killed; 0% means that no larvae were killed.

[3] = system: larvae of the mustard beetle (Phaedon cochleariae); test: Phaedon larvae test (cabbage leaves dipped); format: in vivo
Excerpt: as §1, with “Phaedon Larvae Test To” for “Plutella Test To”, “of the mustard beetle (Phaedon cochleariae) while the” for “of the diamondback moth (Plutella xylostella) while the”, “%. For this purpose 100% means” for “%. For these purposes 100% means”, “all the beetle larvae on” for “all the larvae on”, “that no beetle larvae were” for “that no larvae were”

[4] = system: Heliothis armigera larvae; test: Heliothis armigera test (soybean sprouts dipped, larvae); format: in vivo
Excerpt: Heliothis armigera Test To prepare one of the appropriate active ingredient preparations, mix 1 part by weight of the active ingredient with the indicated amount of solvent and emulsifier and dilute the concentrate with emulsifier-containing water to the desired concentration. Treat soybean sprouts (Glycine max) by dipping into the active ingredient preparation of the desired concentration and infesting with Heliothis armigera larvae while the leaves are still damp. After the desired time, determine the death rate in %. For these purposes 100% means that all the larvae on the leaves were killed; 0% means that no larvae were killed.

[5] = system: larvae of the fall armyworm (Spodoptera frugiperda); test: Spodoptera frugiperda test (cabbage leaves dipped); format: in vivo
Excerpt: as §1, with “Spodoptera frugiperda” for “Plutella”, “infesting them” for “infesting”, “fall armyworm (Spodoptera frugiperda)” for “diamondback moth (Plutella xylostella)”

[6] = system: larvae of the beet armyworm (Spodoptera exigua); test: Spodotera exigua test (cabbage leaves dipped); format: in vivo
Excerpt: as §1, with “Spodotera exigua” for “Plutella”, “infesting them” for “infesting”, “beet armyworm (Spodoptera exigua)” for “diamondback moth (Plutella xylostella)”

[7] = 500 ppm active ingredient, after 7d, cabbage leaves

chromatographic logP ([1]; pH 2, pH2)	chromatographic logP ([1]; pH 2.3, read-out: logp (pH: 2.3))	Compound	Death rate in % after 7d [2, 7] [%]	efficacy (in words) ([2]; Plutella test)	Death rate in % after 7d [3, 7] [%]	efficacy (in words) ([3]; Phaedon larvae test)	Death rate in % after 7d ([4]; 500 ppm active ingredient, after 7d, soybean sprouts) [%]	efficacy (in words) ([4]; Heliothis armigera test)	Death rate in % after 7d [5, 7] [%]	efficacy (in words) ([5]; Spodoptera frugiperda test)	Death rate in % after 7d [6, 7] [%]	efficacy (in words) ([6]; Spodotera exigua test)
3.09	–	N#Cc1cccc(C(=O)C(Br)CCCl)c1 (stereo not drawn) [Example (X-1), 3′-cyano-2-bromo-4-chlorobutyrophenone]	–	–	–	–	–	–	–	–	–	–
–	4.22	N#CCN(C(=O)N1CCC(n2cc(Cl)cn2)C(c2cccc(C(F)(F)F)c2)=N1)c1ccc(OC(F)(F)F)cc1 (stereo not drawn) [Example 1, N-cyanomethyl-4-(4-chloropyrazole-1-yl)-1-(4-trifluoromethoxy-phenylamino)-3-(trifluoromethyl-phenyl)-carbonyl-1,4,5,6-tetrahydropyridazine]	100	good efficacy	100	good efficacy	100	good efficacy	100	good efficacy	100	good efficacy
